Results taken from patent US20040131686A1, “Composition and method for treatment of bacterial vaginal infections” (priority 2003, published 2004).
Structures can show the parent of a compound that is named as a salt.

Tests used:
[1] = test system: E. coli (ATCC #11229); assay: Zone of inhibition on agar plate inoculated with E. coli; type: cell-based
Experimental: Antibacterial activity was evaluated by measuring the diameter of the zone of inhibition (i.e., a clear zone with no bacterial colonies present, measured in millimeters) around the deposited gel. A commercially available vaginal cream formulation of benzydamine hydrochloride, TANTUM ROSA® cream, available from […] Pharmaceuticals, Rome, Italy was also evaluated, for comparison. According to the manufacturer's product literature TANTUM ROSA® cream contains about 0.5% benzydamine hydrochloride in a cream base containing propylene glycol, saturated triglycerides, ceteth 20, hydroxyethyl cellulose, sodium citrate dihydrate, citric acid monohydrate, benzoic acid, and purified water. In addition, a simple aqueous solution containing 0.5% by weight of benzydamine hydrochloride in deionized water was tested as a positive control. All materials were tested in triplicate.

[2] = test system: Staphylococcus aureus (ATCC #6538); assay: Zone of inhibition on agar plate inoculated with Staphylococcus aureus; type: cell-based
Experimental: About 1 grams of each gelled composition was deposited on an agar plate that was previously inoculated with E. coli (ATCC #11229), a Gram-negative bacterium, and the plates were incubated for about 20 to about 28 hours at a temperature of about 35 to about 39° C. Antibacterial activity was evaluated by measuring the diameter of the zone of inhibition (i.e., a clear zone with no bacterial colonies present, measured in millimeters) around the deposited gel.
Similar plates were prepared wherein the inoculant was Staphylococcus aureus (ATCC #6538), a Gram-positive bacterium.
A commercially available vaginal cream formulation of benzydamine hydrochloride, TANTUM ROSA® cream, available from Angelini Pharmaceuticals, Rome, Italy was also evaluated, for comparison. According to the manufacturer's product literature TANTUM ROSA® cream contains about 0.5% benzydamine hydrochloride in a cream base containing propylene glycol, saturated triglycerides, ceteth 20, hydroxyethyl cellulose, sodium citrate dihydrate, citric acid monohydrate, benzoic acid, and purified water. In addition, a simple aqueous solution containing 0.5% by weight of benzydamine hydrochloride in deionized water was tested as a positive control. All materials were tested in triplicate.

[3] = about 1 gram of composition on inoculated agar plate, about 20 to 28 hours, about 35 to 39° C., triplicate

Question: Which results are given for `CN(C)CCCOc1nn(Cc2ccccc2)c2ccccc12` [B-HCl, Benzydamine hydrochloride]?
Answer: E. coli clear zone (diameter of zone of inhibition) [1, 3]: 12 mm; Antibacterial activity against Gram-negative bacteria (E. coli), in words ([1]; inhibition test on agar plate): effective; Staphylococcus clear zone (diameter of zone of inhibition) [2, 3]: 14 mm; Antibacterial activity against Gram-positive bacteria (Staphylococcus aureus), in words ([2]; inhibition test on agar plate): effective
